For one assay, the system named is Sprague Dawley rats. The assay is described as follows: ICV (third cerebral ventricle) infusion combined with systemic pancreatic-insulin clamp. It is filed as in vivo, rat. The following applies: for rate of glucose infusion (GIR) required to prevent hypoglycemia / decrease in endogenous glucose production / rate of glucose uptake: ICV infusion; for rate of glucose infusion (GIR) required to prevent hypoglycemia / decrease in endogenous glucose production: 3 mM solution at 5 μl/h for 6 hr; for rate of glucose infusion (GIR) required to prevent hypoglycemia: basal insulin clamp; for decrease in endogenous glucose production / rate of glucose uptake: pancreatic-insulin clamp; for rate of glucose uptake: 3 mM solution at 5 μl/h. The source says:
To test this hypothesis we asked whether a primary increase in hypothalamic proline is per se sufficient to inhibit glucose production, and whether this effect requires metabolism of lactate to pyruvate. Experiments were designed to examine the effect of central administration of proline on whole body insulin action. In order to selectively increase the central availability of proline, we infused this amino acid via a chronic cannula implanted in the third cerebral ventricle (ICV) of conscious rats.
Proline (PRO, 3 mM solution at 5 μl/h) or vehicle (CON) was infused ICV for 6 hr in chronically catheterized Sprague Dawley rats. Insulin action was assessed by a combination of ICV infusions with systemic pancreatic-insulin clamp studies in order to control for the circulating levels of glucoregulatory hormones.
We next examined whether the effect of central proline on glucose production requires the inter-conversion between lactate and pyruvate catalyzed by LDH. In light of the ‘astrocyte-neuron lactate shuttle hypothesis’ (Pellerin and Magistretti, 2004), we proposed that central administration of proline leads to increased glutamate synthesis results in the increased formation of lactate (increased glycolysis) in astro-glia (Pellerin and Magistretti, 2004). Based on our previous work, the increased availability of lactate would in turn be expected to induce robust changes in liver glucose fluxes. Consistent with this hypothesis, impeding the conversion of glucose to lactate in astrocytes or of lactate to pyruvate in neurons within the hypothalamus should inhibit the potent metabolic effects of central proline on liver glucose fluxes. Oxamate (OXA) is a competitive inhibitor of LDH (Brooks et al., 1999). Thus, to test this hypothesis we next co-infused ICV oxamate (50 mM; 3 μl bolus; 5 μl/h) with proline in order to examine whether lactate metabolism is required for the effects of proline and presumably of other gluconeogenic amino acids on glucose production.
The entry of ketogenic amino acids into the oxidative pathway requires their conversion to the respective keto acid a reaction that is catalyzed by various amino acid aminotransferases. The keto acid product generated by leucine aminotransferase from leucine is α-ketoisocaproic acid (KIC) that can then be converted to acetyl-CoA by the consecutive action of five enzymes. The rate-limiting step in this process is the oxidative decarboxylation of KIC catalyzed by the branched-chain ketoacid dehydrogenase complex or BCKDC. This enzyme is inhibited by phosphorylation by a BCKDC kinase. Importantly, BCKDC can be robustly activated by α-chloroisocaproic acid (α-CIC) via inhibition of the BCKDC kinase (Harris et al., 1982). To test whether the central metabolism of ketogenic amino acids such as leucine could also lead to inhibition of glucose production, we next asked whether a primary increase in hypothalamic KIC is per se sufficient to inhibit glucose production, and whether this effect also requires metabolism of lactate to pyruvate and activation of ATP-dependent potassium channels (KATP). Experiments were designed to examine the effect of central administration of KIC on whole body insulin action.

A further assay deals with conscious rats. Kind of assay: Intrahypothalamic (mediobasal hypothalamus) infusion with pancreatic clamp. The assay is classed as in vivo, rat. The following applies: for rate of glucose infusion required to maintain basal glucose levels: IH infusion 0.33 μl/h (L-glutamate 1 mM; KIC 3 mM bilaterally); for glucose production: IH infusion into mediobasal hypothalamus. On the procedure: Thus, we next tested whether the intra-hypothalamic ([…]) administration of glutamate could recapitulate the effects of […] proline on glucose production.
We next aimed to localize the central effects of KIC on liver glucose production. Toward this end, we administered 3 mM KIC (0.33 μl/h) bilaterally within the parenchyma of the medial hypothalamus. The total amount of KIC given during these experiments was 15 fold lower than that used in the ICV experiments. The correct placement of the hypothalamic cannulae was verified via the infusion of radiolabeled KIC as previously reported.

For the molecule `CC(C)CC(=O)C(=O)O` [KIC, α-ketoisocaproic acid], in the assay with Sprague Dawley rats, the “rate of glucose infusion (GIR) required to prevent hypoglycemia” value is 5.2 ± 0.7 mg/kg/min, the “decrease in endogenous glucose production” value came out at 40±4% and the “rate of glucose uptake” value is “not significantly affected”. Besides, the “glucose utilization (GU)” value with conscious rats (IH 3 mM KIC, 0.33 μl/h bilaterally, pancreatic clamp) is reported as “not altered”. For the same molecule, in the assay on conscious rats (pancreatic clamp), the “rate of glucose infusion required to maintain basal glucose levels” value is reported as “increase”. Further, the glucose production result with conscious rats is “suppression”.

For the molecule `N[C@@H](CCC(=O)O)C(=O)O` [L-glutamate], the “circulating glucose after IH administration” value in the assay with conscious rats (IH 1 mM, 0.33 μl/h) stood at 136 ± 2 mg/dL. The “rate of glucose infusion required to maintain basal glucose levels” value in the assay with conscious rats (pancreatic clamp) is on record as “significantly increased”. In the assay with conscious rats, the glucose production result was “marked suppression”. The “circulating glucose before IH administration” value in the assay with conscious rats (basal value, before IH L-glutamate 1 mM, 0.33 μl/h) turned out to be 159 ± 3 mg/dL.

In the case of `COc1ccc(Cl)cc1C(=O)NCCc1ccc(S(=O)(=O)NC(=O)NC2CCCCC2)cc1` [glibenclamide, reference compound], the “effect per se on rate of glucose infusion and liver glucose fluxes” value in the assay with Sprague Dawley rats (ICV infusion alone, pancreatic clamp) was “no effects”. Moreover, in the assay with Sprague Dawley rats (co-infused ICV with KIC, oxamate 50 mM, 3 μl bolus, 5 μl/h, glibenclamide 100 μM, pancreatic clamp), the “effect on the effects of ICV KIC on rate of glucose infusion and liver glucose fluxes” value is on record as “negated”.

With `O=C(O)[C@@H]1CCCN1` [proline], in the assay on Sprague Dawley rats, the “rate of glucose infusion (GIR) required to prevent hypoglycemia” value was 5.7 ± 0.9 mg/kg/min, the “decrease in endogenous glucose production” value stood at 36±2% and the “rate of glucose uptake” value was “not significantly affected”.

Turning to `CC(C)CC(Cl)C(=O)O` (stereo not drawn) [α-CIC, α-chloroisocaproic acid], in the assay on conscious rats, the glucose production entry is “decrease endogenous glucose production”. Besides, the blood glucose levels entry in the assay with conscious rats (intrahypothalamic infusion, conscious rats) was “lower blood glucose levels”.

For the origin of these results see US20130209433A1, “MODULATION OF AMINO ACID METABOLISM IN THE HYPOTHALAMUS” (Albert Einstein College of Medicine of Yeshiva University, priority 2005, published 2013).
